In brackets after ≈: the same amount, converted by molar mass.
Key:
Assay type in all cases: physicochemical
[1] = Solubility in water and pH 4.5 buffer, HPLC; conditions: 24 hours, 37±0.2° C.; for Solubility (mg/mL) pH 4.5: pH 4.5 buffer (USP)
Protocol: The solubilities of LX9211 dihydrogen phosphate forms S1 and S3 and LX9211 dihydrogen phosphate and urea, and LX9211 free base form A were determined in water and pH 4.5 buffer as follows:
About 80 mg of samples of the starting materials were weighed into 15 ml PP centrifuge tubes. 8 ml of appropriate buffer solution (pH 4.5 according to USP 35-NF 30 Buffer Solutions) or water was added. Tubes were stoppered and shaken at 160 rpm for 24 hours at 37±0.2° C. in an incubator shaker (Innova 4080, New Brunswick Scientific). Suspensions were filtered through 0.45 μm […] syringe filter (CHROMAFIL PTFE-45/25, Macherey-Nagel). Filtrates were sampled and concentration of the starting material was determined by HPLC according to corresponding standard.

[2] = Strong grinding and solvent drop grinding, XRPD analysis
Protocol: (§1) Sample after being powdered in a mortar and pestle is applied directly on a silicon plate holder. The X-ray powder diffraction pattern was measured with Philips X'Pert PRO X-ray powder diffractometer, equipped with Cu irradiation source=1.54184 Å (Ångström), X'Celerator (2.022° 2θ) detector. Scanning parameters: angle range: 3-40 deg., step size 0.0167, time per step 37 s, continuous scan.
Samples of LX9211 dihydrogen phosphate form S1 were subjected to strong grinding and to solvent drop grinding in acetone, ethanol (96%), and 2-propanol). Grinding was carried out on the samples alone, or in the presence of the solvent. In these experiments, about 20 mg of the sample is placed in a mortar and ground with a pestle for 2 minutes. The solvent, when used, as added to the crystalline material before grinding, in a volume of 10 microliters. XRPD analysis performed on each of the samples after the grinding experiment, confirmed no change in the starting material (Table 4):
Samples of LX9211 dihydrogen phosphate form S3 were subjected to strong grinding and to solvent drop grinding in acetone, ethanol (96%), and 2-propanol). Grinding was carried out on the samples alone, or in the presence of the solvent. In these experiments, about 20 mg of the sample is placed in a mortar and ground with a pestle for 2 minutes. The solvent, when used, as added to the crystalline material before grinding, in a volume of 10 microliters. XRPD analysis performed on each of the samples after the grinding experiment, confirmed no change in the starting material (Table 6):
Samples of LX9211 camsylate form K1 were subjected to strong grinding and to solvent drop grinding in acetone, ethanol (96%), and 2-propanol). Grinding was carried out on the samples alone, or in the presence of the solvent. In these experiments, about 20 mg of the sample is placed in a mortar and ground with a pestle for 2 minutes. The solvent, when used, as added to the crystalline material before grinding, in a volume of 10 microliters. XRPD analysis performed on each of the samples after the grinding experiment, confirmed no change in the starting material (Table 8):
Samples of LX9211 hemihydrogen phosphate form S5 were subjected to strong grinding and to solvent drop grinding in acetone, ethanol (96%), and 2-propanol). Grinding was carried out on the samples alone, or in the presence of the solvent. In these experiments, about 20 mg of the sample is placed in a mortar and ground with a pestle for 2 minutes. The solvent, when used, as added to the crystalline material before grinding, in a volume of 10 microliters. XRPD analysis performed on each of the samples after the grinding experiment, confirmed no change in the starting material (Table 10): […]

[3] = Compression at a pressure of 1 ton, XRPD analysis; conditions: hydraulic press, 2 minutes
Protocol: as §1
A sample of LX9211 dihydrogen phosphate form SI was subjected to a pressure of 1 ton (Perkin Elmer Hydraulic Press, set to 1 tons).
A sample of LX9211 dihydrogen phosphate form S3 was subjected to a pressure of 1 ton (Perkin Elmer Hydraulic Press, set to 1 tons).
A sample of LX9211 camsylate form K1 was subjected to a pressure of 1 ton (Perkin Elmer Hydraulic Press, set to 1 tons).
A sample of LX9211 hemihydrogen phosphate form S5 was subjected to a pressure of 1 ton (Perkin Elmer Hydraulic Press, set to 1 tons).

DVS water uptake = conditions: at least up to 90% RH
[4] = 2-propanol 10 microliters, solvent drop grinding for 2 minutes
[5] = Acetone 10 microliters, solvent drop grinding for 2 minutes
[6] = Ethanol (96%) 10 microliters, solvent drop grinding for 2 minutes
[7] = No solvent, strong grinding in mortar for 2 minutes

Compound | Solubility (mg/mL) pH 4.5 [1] | Solubility (mg/mL) water [1] | XRPD analysis results after grinding [2, 4] | XRPD analysis results after grinding [2, 5] | XRPD analysis results after grinding [2, 6] | XRPD analysis results after grinding [2, 7] | XRPD analysis after pressure [3] | hygroscopicity (DVS) (DVS water uptake) | water uptake (DVS) (DVS water uptake)
CC(C)C[C@](C)(N)COc1ccc(-c2ccnc(C(F)F)c2)nc1C(F)F [LX9211 dihydrogen phosphate form S1] | 8.1 mg/mL | 25.0 mg/mL | No polymorphic conversion | No polymorphic conversion | No polymorphic conversion | No polymorphic conversion | no polymorphic conversion | – | –
CC(C)C[C@](C)(N)COc1ccc(-c2ccnc(C(F)F)c2)nc1C(F)F [LX9211 dihydrogen phosphate and urea form U1] | 16.4 mg/mL | 24.4 mg/mL | – | – | – | – | – | – | –
CC(C)C[C@](C)(N)COc1ccc(-c2ccnc(C(F)F)c2)nc1C(F)F [LX9211 free base form A, (S)-1-((2′,6-bis(difluoromethyl)-[2,4′-bipyridin]-5-yl)oxy)-2,4-dimethylpentan-2-amine] | 9.7 mg/mL | 0.1 mg/mL (≈ 259 µM) | – | – | – | – | – | – | –
CC(C)C[C@](C)(N)COc1ccc(-c2ccnc(C(F)F)c2)nc1C(F)F [LX9211 camsylate form K1] | – | – | No polymorphic conversion | No polymorphic conversion | No polymorphic conversion | No polymorphic conversion | no polymorphic conversion | non-hygroscopic | less than 0.1%
CC(C)C[C@](C)(N)COc1ccc(-c2ccnc(C(F)F)c2)nc1C(F)F [LX9211 dihydrogen phosphate form S3] | 13.8 mg/mL | 25.0 mg/mL | No polymorphic conversion | No polymorphic conversion | No polymorphic conversion | No polymorphic conversion | no polymorphic conversion | – | –

— patent publication US20250197354A1, “SOLID STATE FORMS OF LX9211 AND SALTS THEREOF” (TEVA PHARMACEUTICALS INTERNATIONAL GMBH, priority 2022, published 2025)
